Measurements from US20250074901A1, “NOVEL HETEROARYL COMPOUNDS” (ICAGEN, LLC, priority 2021, published 2025).

Biological target: T1, Kv7.2 (Homo sapiens, UniProt O43526)
T1 construct: expressed in transfected cells
Assay: Activation of Kv7.2 (in vitro assay, concentration response curve)
Format: cell-based
Conditions: for Emax: Kv7.2 activation max %; for EC50: activation of Kv7.2
Description: The term “EC50” in this application is defined as: the agonistic effect of a compound can be determined by testing the compound in an in vitro assay as described herein, whereby the effect of the compound is measured across a range of compound concentrations. The resulting data is plotted as a concentration response curve, which typically follows a sigmoidal function, whereby the concentration of the compound is plotted on the x axis and the response (agonistic effect) is plotted on the y axis. The term “EC50” is the “half maximal effective concentration” and denotes the concentration of a particular compound required to obtain 50% of the maximum response (Emax) which is observed for that compound in the given in vitro assay.

Row | Compound | Emax | EC50
1 | O=C(NCc1ccnc(-n2cnc(C(F)(F)F)c2)c1)N[C@H]1C[C@@H]2CC[C@H]1C2 (racemic) [Example 26, 1-[rac-(1R,2R,4S)-2-bicyclo[2.2.1]heptanyl]-3-[[2-[4-(trifluoromethyl)imidazol-1-yl]pyridin-4-yl]methyl]urea] | 65% | 380 nM
2 | O=C(NCc1ccnc(-c2cnco2)c1)N[C@H]1C[C@@H]2CC[C@H]1C2 (racemic) [Example 28, 1-[[2-(1,3-oxazol-5-yl)pyridin-4-yl]methyl]-3-[rac-(1R,2R,4S)-2-bicyclo[2.2.1]heptanyl]urea] | 76% | 8280 nM
3 | O=C(NCc1ccnc(OC(F)F)c1)NCC1CCCC1 [Example 46, 1-(cyclopentylmethyl)-3-[[2-(difluoromethoxy)pyridin-4-yl]methyl]urea] | 64% | 210 nM
4 | O=C(NCc1ccnc(OC(F)F)c1)N[C@@H]1C[C@H]2CC[C@@H]1C2 (racemic) [Example 12, 1-[[2-(difluoromethoxy)pyridin-4-yl]methyl]-3-[rac-(1R,2R,4S)-2-bicyclo[2.2.1]heptanyl]urea] | 81% | 90 nM
5 | COC1(CNC(=O)NCc2ccnc(OC(F)F)c2)CCC1 [Example 38, 1-[[2-(difluoromethoxy)pyridin-4-yl]methyl]-3-[(1-methoxycyclobutyl)methyl]urea] | 73% | 3730 nM
6 | O=C(NCc1ccnc(OCC(F)(F)F)c1)NCC12CC(F)(C1)C2 [Example 75, 1-[(3-fluoro-1-bicyclo[1.1.1]pentanyl)methyl]-3-[[2-(2,2,2-trifluoroethoxy)pyridin-4-yl]methyl]urea] | 40% | 600 nM
7 | CC1CC(C)(C)CCC1NC(=O)NCc1ccnc(C#N)c1 (stereo not drawn) [Example 5, 1-[(2-cyanopyridin-4-yl)methyl]-3-(2,4,4-trimethylcyclohexyl)urea] | 60% | 3690 nM
8 | O=C(NCc1ccnc(OC(F)F)c1)NC1CC2CCCC2C1 (stereo not drawn) [Example 78, 1-(1,2,3,3a,4,5,6,6a-octahydropentalen-2-yl)-3-[[2-(difluoromethoxy)pyridin-4-yl]methyl]urea] | 62% | 20 nM
9 | O=C(NCc1ccnc(OC(F)F)c1)N[C@H]1C[C@@H]2C[C@H]1[C@H](O)C2 (racemic) [Example 107, 1-[[2-(difluoromethoxy)pyridin-4-yl]methyl]-3-[rac-(1R,2S,4S,6R)-6-hydroxy-2-bicyclo[2.2.1]heptanyl]urea] | 95% | 1700 nM
10 | O=C(Nc1cccc(Cl)c1)NC(CO)c1ccnc(OC(F)F)c1 (stereo not drawn) [Example 97, 1-(3-chlorophenyl)-3-[1-[2-(difluoromethoxy)pyridin-4-yl]-2-hydroxyethyl]urea] | 55% | 80 nM
11 | O=C(NCc1ccnc(OC(F)F)c1)NC1CC(C2CC2)C1 (stereo not drawn) [Example 77, 1-(3-cyclopropylcyclobutyl)-3-[[2-(difluoromethoxy)pyridin-4-yl]methyl]urea] | 62% | 90 nM
12 | O=C(NCc1ccnc(OC(F)F)c1)NC[C@@]12CCC[C@@H]1CCO2 (racemic) [Example 120, 1-[[2-(difluoromethoxy)pyridin-4-yl]methyl]-3-[[rac-(3aR,6aR)-2,3,3a,4,5,6-hexahydrocyclopenta[b]furan-6a-yl]methyl]urea] | 53% | 3450 nM
13 | COC(CNC(=O)NCc1ccnc(OC(F)F)c1)C(F)(F)F (stereo not drawn) [Example 119, 1-[[2-(difluoromethoxy)pyridin-4-yl]methyl]-3-(3,3,3-trifluoro-2-methoxypropyl)urea] | 41% | 1600 nM
14 | CC1(C)CCC(NC(=O)NCc2ccnc(OC3COC3)c2)CC1 [Example 18, 1-(4,4-dimethylcyclohexyl)-3-[[2-(oxetan-3-yloxy)pyridin-4-yl]methyl]urea] | 71% | 270 nM
15 | COc1cc(CNC(=O)N[C@@H]2C[C@H]3CC[C@@H]2C3)ccn1 (racemic) [Example 14, 1-[(2-methoxypyridin-4-yl)methyl]-3-[rac-(1R,2R,4S)-2-bicyclo[2.2.1]heptanyl]urea] | 86% | 1840 nM
16 | O=C(NCc1ccnc(C(F)(F)F)c1)N[C@H]1C[C@@H]2CC[C@H]1C2 (racemic) [Example 36, 1-[rac-(1R,2R,4S)-2-bicyclo[2.2.1]heptanyl]-3-[[2-(trifluoromethyl)pyridin-4-yl]methyl]urea] | 64% | 540 nM

Next, values leading:

Row | Emax | EC50 | Compound
17 | 61% | 6310 nM | CC(F)COc1cc(CNC(=O)NC23CC(F)(C2)C3)ccn1 (stereo not drawn) [Example 160, 1-(3-fluoro-1-bicyclo[1.1.1]pentanyl)-3-[[2-(2-fluoropropoxy)pyridin-4-yl]methyl]urea]
18 | 54% | 160 nM | O=C(NCc1ccnc(OC(F)F)c1)NCC1(C(F)(F)F)CCC1 [Example 237, 1-[[2-(difluoromethoxy)pyridin-4-yl]methyl]-3-[[1-(trifluoromethyl)cyclobutyl]methyl]urea]
19 | 58% | 330 nM | O=C(NCc1cc(OC(F)F)ncc1F)N[C@H]1C[C@H](C(F)(F)F)C1 [Example 277, 1-[[2-(difluoromethoxy)-5-fluoropyridin-4-yl]methyl]-3-[(1r,3r)-3-(trifluoromethyl)cyclobutyl]urea]
20 | 47% | 340 nM | O=C(NCc1ccnc(OCC(F)CF)c1)NC12CCC(F)(CC1)CC2 (stereo not drawn) [Example 213, 1-[[2-(2,3-difluoropropoxy)pyridin-4-yl]methyl]-3-(4-fluoro-1-bicyclo[2.2.2]octanyl)urea]
21 | 62% | 600 nM | O=C(NCc1ccnc(OC(F)F)c1)N[C@@H]1CC[C@@H]2[C@H]1C2(F)F [Example 133, 1-[(1R,2R,5R)-6,6-difluoro-2-bicyclo[3.1.0]hexanyl]-3-[[2-(difluoromethoxy)pyridin-4-yl]methyl]urea]
22 | 83% | 240 nM | C[C@H]1C[C@H](NC(=O)NCc2ccnc(OC(F)F)c2)C1 [Example 163, 1-[[2-(difluoromethoxy)pyridin-4-yl]methyl]-3-((1r,3r)-3-methylcyclobutyl)urea]
23 | 51% | 750 nM | O=C(NCc1ccnc(OC(F)F)c1)N[C@@H](C1CCC1)C(F)(F)F [Example 242, 1-[(1S)-1-cyclobutyl-2,2,2-trifluoroethyl]-3-[[2-(difluoromethoxy)pyridin-4-yl]methyl]urea]
24 | 65% | 3510 nM | O=C(NCc1ccnc(OC(F)F)c1)Nc1cccc(OC(F)F)c1 [Example 262, 1-[3-(difluoromethoxy)phenyl]-3-[[2-(difluoromethoxy)pyridin-4-yl]methyl]urea]
25 | 62% | 120 nM | CC(F)(F)COc1cc(CNC(=O)N[C@H]2C[C@H](C(F)(F)F)C2)ccn1 [Example 121, 1-[[2-(2,2-difluoropropoxy)pyridin-4-yl]methyl]-3-[(1r,3r)-3-(trifluoromethyl)cyclobutyl]urea]
26 | 68% | 490 nM | O=C(NC(CO)c1ccnc(OCC(F)(F)F)c1)NC12CC(F)(C1)C2 (stereo not drawn) [Example 283, 1-(3-fluoro-1-bicyclo[1.1.1]pentanyl)-3-[2-hydroxy-1-[2-(2,2,2-trifluoroethoxy)pyridin-4-yl]ethyl]urea]
27 | 51% | 290 nM | O=C(NCc1ccnc(OC(F)F)c1)NC1CC(OC(F)(F)F)C1 (stereo not drawn) [Example 267, 1-[[2-(difluoromethoxy)pyridin-4-yl]methyl]-3-[3-(trifluoromethoxy)cyclobutyl]urea]
28 | 58% | 260 nM | O=C(NCc1ccnc(OC(F)F)c1)NC(C(F)(F)F)C(F)(F)F [Example 228, 1-[[2-(difluoromethoxy)pyridin-4-yl]methyl]-3-(1,1,1,3,3,3-hexafluoropropan-2-yl)urea]
29 | 67% | 250 nM | Cc1cccc(NC(=O)NC(CO)c2ccnc(OC(F)F)c2)c1 (stereo not drawn) [Example 280, 1-[1-[2-(difluoromethoxy)pyridin-4-yl]-2-hydroxyethyl]-3-(3-methylphenyl)urea]
30 | 40% | 1050 nM | CC1(NC(=O)NCc2ccnc(OC(F)F)c2)CCC(F)(F)CC1 [Example 143, 1-[[2-(difluoromethoxy)pyridin-4-yl]methyl]-3-(4,4-difluoro-1-methylcyclohexyl)urea]
31 | 82% | 50 nM | CC1(C)CC(NC(=O)NCc2ccnc(OC(F)F)c2)C1 [Example 188, 1-[[2-(difluoromethoxy)pyridin-4-yl]methyl]-3-(3,3-dimethylcyclobutyl)urea]
32 | 64% | 140 nM | O=C(NCc1ccnc(OC(F)F)c1)NC(C1CCC1)C(F)(F)F (stereo not drawn) [Example 152, 1-(1-cyclobutyl-2,2,2-trifluoroethyl)-3-[[2-(difluoromethoxy)pyridin-4-yl]methyl]urea]
33 | 43% | 310 nM | O=C(NCc1ccnc(OCC(F)F)c1)NC12CC(F)(C1)C2 [Example 217, 1-[[2-(2,2-difluoroethoxy)pyridin-4-yl]methyl]-3-(3-fluoro-1-bicyclo[1.1.1]pentanyl)urea]
34 | 52% | 430 nM | O=C(NC(CO)c1ccnc(OC(F)F)c1)N[C@@H]1COc2ccccc2C1 (stereo in doubt) [Example 278, rel-1-[1-[2-(difluoromethoxy)pyridin-4-yl]-2-hydroxyethyl]-3-[(3S)-3,4-dihydro-2H-chromen-3-yl]urea]
35 | 54% | 1490 nM | Cc1cccc(NC(=O)NCc2ccnc(OC(F)F)c2)n1 [Example 218, 1-[[2-(difluoromethoxy)pyridin-4-yl]methyl]-3-(6-methylpyridin-2-yl)urea]
36 | 48% | 220 nM | O=C(NCc1ccnc(OC(F)F)c1)N[C@H]1CC[C@@H](C(F)(F)F)C1 [Example 144, 1-[[2-(difluoromethoxy)pyridin-4-yl]methyl]-3-[(1S,3R)-3-(trifluoromethyl)cyclopentyl]urea]
